# Test results: article PMC5803267, “A small molecule inhibitor of Rheb selectively targets mTORC1 signaling” (Nature Communications, 2018)
# “Also recorded” adds a separate entry of the source.
# Columns and labels:
# [1] = target: T1, Rheb-dependent mTORC1 kinase activity (Homo sapiens, UniProt Q15382); assay: Rheb-dependent mTORC1 in vitro kinase assay (Rheb-IVK); assay type: biochemical
# T1 construct: using full-length Rheb and mTORC1 purified from mammalian cells via a Flag-Raptor handle; made in house; host or cells: HA-GST-Rheb: Freestyle 293-F cells transfected with pRK5-HA-GST-Rheb; mTORC1: HEK-293E cells stably expressing FLAG-Raptor
# [2] = tested on: Rap1; assay: Rap1 in vitro activity assay (GST-RalGDS-RBD pulldown from lysates); assay type: biochemical, human; conditions: lysates loaded with GDP or GTPγS, compound 30 min
# Experimental: (§1) MCF-7 cells were serum-starved for 16 h and treated with compound for 90 min before cell lysis and Western blot analysis. For insulin-stimulated cells, 100 nM insulin was added 30 min before cell lysis. For EGF-stimulated cells, 100 ng mL^−1 EGF was added 10 min before cell lysis. c Rap1 activity was detected in lysates loaded in vitro with either GDP or GTPγS and treated with NR1 at the indicated concentrations. This was followed by a subsequent pulldown of GST-RalGDS-RBD. Bound Rap1 was detected by Western blot. d Evaluation of NR1 in a LAM patient-derived cell line (TRI102) under replete and serum-starved conditions. For replete conditions, TRI102 cells were treated for 90 min with compound in DMEM + 10% FBS. For serum-starved conditions, TRI102 cells were serum-starved 16 h and then treated for 90 min with compound prior to cell lysis and Western blot analysis. e HEK293 cells co-transfected with the indicated mTOR constructs and HA-GST-S6K1 were starved of amino acids or treated with NR1. To assess mTORC1 activity, an HA IP was performed and Western blots probed for ^T389pS6K1. f Chronic treatment of PC3 cells with NR1 to evaluate the inhibition of mTORC1 (using ^T389pS6K1) versus mTORC2 (using ^S473pAKT). PC3 cells were treated with compound under replete conditions for 24 h prior to cell lysis and Western blot analysis. […]
# [3] = tested on: mTORC1 signaling in TRI102 cells; assay: mTORC1 signaling Western blot in TRI102 cells; assay type: cell-based, human; conditions: replete and serum-starved conditions, 90 min, dose-dependent
# Experimental: as §1
# [4] = Pharmacokinetic profile in mouse plasma; assay type: in vivo
# Experimental: The selective inhibition of mTORC1 activation by NR1 in vitro and in cell-based systems prompted us to evaluate the effect of this compound on mTORC1 activity in vivo. […] In particular, the plasma concentration of NR1 was sustained over 5 µM for 2 h after IP administration of a 30 mg kg^−1 dose (Supplementary Fig. 10). We therefore carried out a pharmacodynamic (PD) study to evaluate the efficacy of NR1 at inhibiting mTORC1 signaling in vivo. In this experiment, mice were starved overnight to achieve a low basal level of mTORC1 activation (pre-dose). After a 16 h fast, the animals were treated with either vehicle or 30 mg kg^−1 NR1 and allowed to re-feed for 2 h before sacrifice and tissue collection. mTORC1 activity was measured by quantification of ^S240/244pS6 by Western blot analysis with a specific antibody. We chose kidney and gastrocnemius muscle as target tissues due to the relevance of mTORC1 in renal cell carcinoma[51] and angiomyolipomas in TSC and LAM[12] and for its important role in the regulation of protein synthesis and muscle mass[52]. The results are summarized in Fig. 6 for skeletal muscle and Supplementary Fig. 11 for kidney.
# This study was conducted in accordance with the requirements for the humane care and use of animals set forth in the Animal Welfare Act, the IACUC Guide for the Care and Use of Laboratory Animals, applicable Shanghai and state laws, and regulations and policies of Shanghai ChemPartner Ltd. The animals were not randomized, and the study was not blinded. Male C57BL/6 mice (5 per treatment group, 6–7 weeks old) were fasted of food overnight for 16 hours. IP injection of compound dissolved in MC Tween (0.5% methyl cellulose and 0.1% Tween-80 in water) was given, and then the mice were allowed to feed again ad libitum until sacrifice. The animals were euthanized with CO2. Compound levels in the plasma of treated mice were measured by LC-MS/MS and compared to a standard curve of compound diluted into mouse plasma.
# Supplementary Figure 10. Pharmacokinetic profile of NR1 in mouse plasma after a single 30
# mg/Kg (body weight) intraperitoneal dose. The dotted line corresponds to 5 µM concentration. Error
# bars represent standard deviation of the mean values for n=3 mice.
# [5] = target: Rheb (Homo sapiens, UniProt Q15382); assay: Affinity selection mass spectrometry (ASMS) Rheb binding; conditions: result in words
# Source text: We used both Rheb binding and functional activity to guide the SAR optimization. Due to its high sensitivity and ability to detect weak binding ligands, STD NMR was initially used to measure Rheb binding. In addition to the benzimidazole of 1, we also explored the related indole scaffold, which allowed a wider range of functionalization. […] Therefore, we also used affinity selection mass spectrometry (ASMS) as a semi-quantitative measure of Rheb binding.
# [6] = ip, mouse plasma, single 30 mg/Kg intraperitoneal dose
# Chain of Rheb (Q15382 whole entry): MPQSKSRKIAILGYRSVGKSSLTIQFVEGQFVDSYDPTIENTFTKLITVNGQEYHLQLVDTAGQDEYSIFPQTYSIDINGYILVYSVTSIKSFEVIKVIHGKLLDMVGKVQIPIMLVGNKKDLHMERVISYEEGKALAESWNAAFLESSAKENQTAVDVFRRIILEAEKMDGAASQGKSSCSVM
# T1 sequence (Q15382 1-181 limits assumed): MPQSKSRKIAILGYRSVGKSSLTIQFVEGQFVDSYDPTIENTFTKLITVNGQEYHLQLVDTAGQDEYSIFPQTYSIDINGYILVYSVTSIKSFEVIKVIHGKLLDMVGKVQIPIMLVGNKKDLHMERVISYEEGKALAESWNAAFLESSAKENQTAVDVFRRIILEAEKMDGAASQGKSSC
structure (smiles),measurement,setting,value
"CN(C)C(=O)c1ccc(Cn2c(C(=O)O)cc3c(Br)cc(Sc4ccc(Cl)c(Cl)c4)cc32)cc1 [NR1, 4-bromo-6-(3,4-dichlorophenylthio)-1-(4-(dimethylcarbamoyl)benzyl)-1H-indole-2-carboxylic acid]",IC50,[1],2100 nM
same,effect on activity of Rap1 in vitro,[2],no impact on the activity of Rap1; also recorded: did not affect the activity of Rap1
same,mTORC1 signaling in TRI102 cells,[3],inhibits mTORC1 signaling
same,AUC(0-inf),[4]; [6],23500 ng·h/mL
same,AUC(0-t),[4]; [6],23500 ng·h/mL
same,Cmax,[4]; [6],7800 ng/mL
same,Tmax,[4]; [6],0.25 h
same,half-life,"[4]; ip, mouse plasma, single 30 mg/Kg intraperitoneal dose, read-out: Terminal t1/2 (converted)",2.24 h
same,plasma concentration sustained for 2 h,"[4]; mouse, IP, 30 mg kg^−1",over 5 µM
same,Rheb binding by ASMS,[5],significant affinity
